# Reference: patent US20190008440A1, “Method and device to investigate or treat painful neuropathy” (priority 2017, published 2019)
# How the values were obtained:
# A delta nociceptors = test: Laser pin prick pain threshold (A delta fibers) of healthy volunteer after topical capsaicin; format: in vivo, human; details: beam 1 mm, 20 minutes after topical capsaicin on skin
# Description: The following is a description a typical test procedure utilizing the present invention with the application of protocol Example 1 for healthy volunteers and pain patients:
# Step 1: Preparing volunteer for test. The volunteers were asked to respond to stimuli after each stimulus was applied, and describing the level and type of evoked sensation, location of sensation, how long the sensation lasts, whether the sensation was single (monomodal) or if more than one sensation were evoked by stimulation.
# Step 2: The level of power of laser was adjusted to skin type of volunteer and irradiated spot was selected as close as possible to A-delta receptors.
# Collimated beam with diameter 2 mm, within range of power 5.0-10.0 W and pulse duration 100 ms is applied to an investigated area of skin to determine the individual sensitivity and to map the location of A delta nociceptors. The power is increased with step 0.5 W until the first sensation is evoked. After that, the pulse power is fixed and the position of the irradiated spot is scanned (tuned) within an XY frame 5 mm×5 mm to find the location of the nociceptor and pulse power is applied for each new location with spatial steps of around 0.5 mm for fingertips.
# The inter-stimulus time was at least 20 sec. The first appeared sensation was rated by the volunteer as barely pricking pain without any other sensations of warmth or hot pain.
# After the location of receptors were determined, the summation curve—Power of Pain Threshold vs. Pulse Duration were measured by the following procedure: • 1) Collimated beam was adjusted to 1 mm, • 2) Duration of pulse set up to 50 ms and pulse power was increased from 2 W until volunteer reported about first appeared sensation. • 3) Afterwards, power was increased until volunteer reported that sensation became clearly painful, but decreasing of power of stimulus on 5-10% leads to the disappearance of pain. • 4) Afterward, the power threshold was measured for 50 ms pulse duration was increased by step 50 ms and procedure measurement of threshold was repeated. The increment of power was 0.1 W.
# The healthy volunteer was tested with pulse durations from 50 ms to 300 ms and beam size of 1 mm. The volunteer reported what around 200-300 ms, they felt on the same level of power firstly warmth and after that pricking pain but for pulses within range 50-150 ms, only single (monomodal) pricking pain was discerned. The sensations were sharp and disappeared in a few seconds after stimulation. The next stimulus was applied not earlier than 20 sec or after the disappearance of painful sensation of previous stimulus.
# The thresholds of pin prick pain of healthy volunteers were measured in 20 minutes after topical analgesic (capsaicin) was applied on skin. The Steps 2, 3 and 4 were repeated.
# A delta and C fibers = test: Skin biopsies processed with PGP 9.5 biomarker, integral fiber density of A delta and C fibers in epidermis and dermis; format: in vivo, human; details: biopsies 7 days after treatment with 8% capsaicin patch
# Description: In 7 days after treatment additional biopsies from laser and capsaicin treated areas together with control were taken and “blindly” processed with PGP 9.5 biomarker to determine the integral fiber density of the A delta and C fibers in epidermis and dermis.
# [1] = cited from earlier work
# C fibers = test: Laser threshold pulse duration for hot pain (stimulation of C fibers), hairy skin of left hand; format: in vivo, human
# Experimental: Subjects: A chronic pain patient with hypersensitivity and a healthy volunteer were tested. Both subjects gave informed consent and the experiments were approved by the local institutional review board. The hairy skin of left hand was used for both volunteers. In preparing the subjects testing, they were asked to respond orally immediately after they perceived any threshold sensation and/or to interrupt lasing pulse by pressing STOP button. They then described the level and type of evoked sensation, location of sensation, how long the sensation lasted, whether the sensation was single (monomodal) sensation or if there were more than one evoked sensations by a single stimulation. Afterwards, the threshold pulse was applied 3 times to different areas with interval of {tilde over ( )}3 min or after the previous sensation (pain) had disappeared. The appearance redness was an indication of skin irritation.
# Step 1: To test duration of pulse that evoked threshold warmth sensation only, the output power was set to 1.5 W, beam size adjusted to 5 mm. The pulse was applied to the skin. When the volunteer reported warmth (pain) sensation the lasing was stopped. […]
# The laser radiation was stopped by volunteer. […] When this button was pushed the command “stop lasing” was activated, duration of applied pulse was measured and it was indicated on the screen of PC connected to the device by RS232 interface. […]
# C fiber mediated pain = details: in vivo; cited from earlier work
SMILES,"Power of Pain Thresholds of Healthy Volunteer (Capsaicin) (A delta nociceptors; pulse duration 50 ms, untreated healthy volunteer 9.5 W) [W]","Power of Pain Thresholds of Healthy Volunteer (Capsaicin) (A delta nociceptors; pulse duration 100 ms, untreated healthy volunteer 4.5 W) [W]","Power of Pain Thresholds of Healthy Volunteer (Capsaicin) (A delta nociceptors; pulse duration 150 ms, untreated healthy volunteer 3.2 W) [W]","Power of Pain Thresholds of Healthy Volunteer (Capsaicin) (A delta nociceptors; pulse duration 200 ms, untreated healthy volunteer 2.8 W) [W]","Power of Pain Thresholds of Healthy Volunteer (Capsaicin) (A delta nociceptors; pulse duration 300 ms, untreated healthy volunteer 2.5 W) [W]",fiber density below control (A delta and C fibers) [%],residual time ([1]; capsaicin solution used to stimulate neurogenic flare),duration of capsaicin induced flare ([1]; in vivo),residual time of capsaicin in the skin ([1]; patch application) [h],"threshold pulse duration, hot pain (C fibers; power 1.5 W, beam 5 mm, healthy volunteer affected topical capsaicin, stop button, untreated healthy volunteer 1300 ms) [ms]",effect on thresholds of warmth sensation and hot/burning pain (C fibers; topical capsaicin),inhibition of C fiber mediated pain vs A delta fiber mediated pain (C fiber mediated pain)
COc1cc(CNC(=O)CCCC/C=C/C(C)C)ccc1O [capsaicin],14.8,7.0,5,4.3,3.9,10 to 20,over 48 hours,over several hours,48,800,decreases the thresholds of warmth sensation and hot/burning pain,
CN1CC[C@]23c4c5ccc(O)c4O[C@H]2[C@@H](O)C=C[C@H]3[C@H]1C5 [morphine],,,,,,,,,,,,much more effective in inhibiting C fiber mediated pain than A delta fiber mediated pain
